Source: patent US20250269000A1, “ANTI-TUMOUR RESPONSES TO CYTOKERATINS” (SCANCELL LIMITED, priority 2020, published 2025)
Where a SMILES comes first, the peptide text is derived from it. [ ]: non-standard residue; d: D form. Cit = NC(=O)NCCC[C@H](N)C(=O)O

Tested on: B16 tumour cells
Assay: Tumour challenge, B16 in C57BL/6 mice
Format: in vivo, mouse
Settings: immunised tumour bearing C57BL/6 mice
Procedure: C57BL/6 were challenged with B16 tumour (parental non-transfected cell line). Four days later the C57BL/6 mice were immunised with Cyk8 8-26 cit peptide. Overall survival (A), tumour volume (B) at day 13 and tumour volume throughout the study (C), post tumour implant are shown for unimmunised control mice and mice immunised with Cyk8 8-26 cit peptide. Statistical differences between immunised and control mice were determined by Mantel-Cox test, p values are shown. The tumour volume medians and p values are shown as determined by Mann Whitney U test, n=10 in all group.
For tumour challenge experiments, mice were challenged with 1×10^5 B16 HHDII/iDP4 cells subcutaneously on the right flank […] before primary immunisation (unless stated otherwise) and then immunised as described above. Tumour growth was monitored at 3-4 days intervals and mice humanely euthanised once tumour reached ≥10 mm in diameter.
The effect of immunisation with Cyk8 8-26 cit on the growth of the mouse B16 melanoma cell line was assessed in C57BL/6. Mice were challenged with B16 tumour cells 3 days prior to immunisation with Cyk8 8-26 cit.

With `CC(C)[C@H](NC(=O)[C@H](CCCCN)NC(=O)[C@H](Cc1ccc(O)cc1)NC(=O)[C@H](CO)NC(=O)[C@@H](N)CCCCN)C(=O)N[C@@H](CO)C(=O)N[C@H](C(=O)N[C@@H](CO)C(=O)NCC(=O)N1CCC[C@H]1C(=O)N[C@@H](CCCNC(N)=O)C(=O)N[C@@H](C)C(=O)N[C@@H](Cc1ccccc1)C(=O)N[C@@H](CO)C(=O)N[C@@H](CO)C(=O)N[C@@H](CCCNC(N)=O)C(=O)N[C@@H](CO)C(=O)N[C@@H](Cc1ccc(O)cc1)C(=O)N[C@H](C(=O)O)[C@@H](C)O)[C@@H](C)O` [Cyk8 8-26 cit, KSYKVSTSGP-cit-AFSS-cit-SYT] (H-KSYKVSTSGP[Cit]AFSS[Cit]SYT-OH) the associated toxicity was “no associated toxicity”.
